Among the data in patent US20250114345A1, “COMPOUNDS AND COMPOSITIONS AS CBP/P300 DEGRADERS AND USES THEREOF” (Oncopia Therapeutics, Inc. d/b/a/ SK Life Science Labs, priority 2023, published 2025) are Dmax and DC50 values, retold here.

This assay deals with T1, p300 (Homo sapiens, UniProt Q09472).
T1 construct: host or cells: A549 P300 HiBit cells
The experiment in a line: P300 degradation, HiBit technology in A549 P300 HiBit cells (2 h). The assay is classed as cell-based. Particulars: 2 hrs post treatment; for Dmax: A549, A549 P300 HiBit cells; for DC50: A549 P300 HiBit cells. In short, it runs like this:
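Endogenously HiBiT-tagged A549 cells are plated, left overnight, then treated with a compound dilution series at 37 °C and 5% CO2. At the set time, lytic detection buffer is added and plates are shaken 10 min at room temperature before luminescence is measured to derive potency and Dmax.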
For orientation: With HiBiT, luminescence reflects the tagged protein that the partner subunit can reach.

T1 sequence (Q09472 whole entry): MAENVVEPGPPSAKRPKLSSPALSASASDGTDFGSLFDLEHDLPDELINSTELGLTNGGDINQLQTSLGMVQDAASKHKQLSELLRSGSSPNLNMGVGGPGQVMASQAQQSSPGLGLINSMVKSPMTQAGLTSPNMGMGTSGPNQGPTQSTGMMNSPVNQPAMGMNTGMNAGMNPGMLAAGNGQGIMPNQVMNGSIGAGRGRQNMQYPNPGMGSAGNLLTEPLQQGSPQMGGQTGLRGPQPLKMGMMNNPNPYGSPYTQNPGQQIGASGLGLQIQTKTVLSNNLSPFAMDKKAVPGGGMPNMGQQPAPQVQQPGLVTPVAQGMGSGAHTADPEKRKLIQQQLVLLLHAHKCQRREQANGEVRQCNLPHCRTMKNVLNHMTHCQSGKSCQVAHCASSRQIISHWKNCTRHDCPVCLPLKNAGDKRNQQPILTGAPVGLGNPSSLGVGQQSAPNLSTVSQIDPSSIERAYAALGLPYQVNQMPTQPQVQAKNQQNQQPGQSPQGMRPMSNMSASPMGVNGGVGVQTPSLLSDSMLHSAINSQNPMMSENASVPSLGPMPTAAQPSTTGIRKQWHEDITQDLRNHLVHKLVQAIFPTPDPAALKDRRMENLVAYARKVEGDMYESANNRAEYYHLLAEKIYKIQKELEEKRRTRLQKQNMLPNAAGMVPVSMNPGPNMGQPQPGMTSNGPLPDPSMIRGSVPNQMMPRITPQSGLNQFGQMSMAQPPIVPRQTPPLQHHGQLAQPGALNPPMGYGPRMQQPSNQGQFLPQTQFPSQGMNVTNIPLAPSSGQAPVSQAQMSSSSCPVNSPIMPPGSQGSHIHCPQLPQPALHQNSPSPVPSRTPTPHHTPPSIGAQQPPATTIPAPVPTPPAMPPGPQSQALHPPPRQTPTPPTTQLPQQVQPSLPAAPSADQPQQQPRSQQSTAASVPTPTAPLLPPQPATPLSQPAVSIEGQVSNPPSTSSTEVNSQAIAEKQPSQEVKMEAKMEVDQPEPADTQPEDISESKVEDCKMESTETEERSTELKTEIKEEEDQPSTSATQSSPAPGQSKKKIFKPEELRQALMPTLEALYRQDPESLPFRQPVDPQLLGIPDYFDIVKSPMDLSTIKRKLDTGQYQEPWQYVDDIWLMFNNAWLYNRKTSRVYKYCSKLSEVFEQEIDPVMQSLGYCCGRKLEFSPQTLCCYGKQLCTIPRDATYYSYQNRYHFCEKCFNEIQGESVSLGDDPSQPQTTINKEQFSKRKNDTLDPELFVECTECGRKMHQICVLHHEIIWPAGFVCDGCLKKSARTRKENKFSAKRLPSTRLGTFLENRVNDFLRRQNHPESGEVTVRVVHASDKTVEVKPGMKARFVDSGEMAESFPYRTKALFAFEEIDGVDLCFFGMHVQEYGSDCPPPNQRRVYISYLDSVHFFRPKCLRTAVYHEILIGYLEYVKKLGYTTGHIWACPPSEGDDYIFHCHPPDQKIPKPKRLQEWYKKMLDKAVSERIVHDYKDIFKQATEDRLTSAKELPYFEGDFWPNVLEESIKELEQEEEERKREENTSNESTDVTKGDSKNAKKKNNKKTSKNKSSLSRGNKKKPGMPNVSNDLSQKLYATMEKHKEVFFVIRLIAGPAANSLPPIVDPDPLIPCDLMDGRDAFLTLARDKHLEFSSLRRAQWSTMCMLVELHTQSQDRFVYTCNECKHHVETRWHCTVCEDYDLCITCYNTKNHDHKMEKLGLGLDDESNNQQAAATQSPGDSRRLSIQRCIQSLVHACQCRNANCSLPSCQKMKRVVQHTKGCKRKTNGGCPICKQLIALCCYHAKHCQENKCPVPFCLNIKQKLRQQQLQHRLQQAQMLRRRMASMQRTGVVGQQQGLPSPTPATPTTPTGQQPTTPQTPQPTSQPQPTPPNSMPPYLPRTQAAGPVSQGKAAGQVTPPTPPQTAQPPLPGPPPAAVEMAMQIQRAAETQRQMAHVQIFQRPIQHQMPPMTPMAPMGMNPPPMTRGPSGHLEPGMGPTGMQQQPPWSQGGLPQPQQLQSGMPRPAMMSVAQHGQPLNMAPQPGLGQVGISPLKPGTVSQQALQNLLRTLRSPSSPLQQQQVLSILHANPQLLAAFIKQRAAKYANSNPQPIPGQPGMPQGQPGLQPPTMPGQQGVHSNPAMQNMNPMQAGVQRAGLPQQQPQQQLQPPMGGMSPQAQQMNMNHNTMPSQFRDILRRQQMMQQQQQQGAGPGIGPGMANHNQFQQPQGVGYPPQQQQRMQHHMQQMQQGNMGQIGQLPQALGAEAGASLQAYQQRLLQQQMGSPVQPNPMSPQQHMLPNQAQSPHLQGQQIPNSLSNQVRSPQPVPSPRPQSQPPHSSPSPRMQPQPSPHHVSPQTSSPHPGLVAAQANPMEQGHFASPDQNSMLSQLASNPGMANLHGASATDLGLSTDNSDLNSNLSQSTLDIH

In the case of `Cc1cc(-c2ccc(N(C)c3cc(C(C)C)c4c(c3)n(C)c(=O)n4C)cn2)cnc1C(=O)NCC#Cc1ccc2occ(C3CCC(=O)NC3=O)c2c1` (stereo not drawn) [Example A141, N-(3-(3-(2,6-dioxo-piperidin-3-yl)benzofuran-5-yl)prop-2-yn-1-yl)-5-((7-isopropyl-1,3-dimethyl-2-oxo-2,3-dihydro-1H-benzo [d]imidazol-5-yl)(methyl)amino)-5′-methyl-[2,3′-bipyridine]-6′-carboxamide], the Dmax is over 80% and the DC50 lay within 1 to 9.9 nM.

As for `Cn1c(=O)n(C)c2cc(N3CCOc4nc(-c5ccc(C(=O)NCC#Cc6ccn7ncc(C8CCC(=O)NC8=O)c7c6)nc5)ncc43)ccc21` (stereo not drawn) [Example A246, 5-(5-(1,3-dimethyl-2-oxo-2,3-dihydro-1H-benzo[d]imidazol-5-yl)-6,7-dihydro-5H-pyrimido[4,5-b][1,4]oxazin-2-yl)-N-(3-(3-(2,6-dioxopiperidin-3-yl)pyrazolo[1,5-a]pyridin-5-yl)prop-2-yn-1-yl)picolinamide], the Dmax was 40 to 59% and the DC50 fell in the range of 1 to 9.9 nM.

`Cc1cc2c(N3CCCc4cc(-c5ccc(C(=O)NCC#Cc6ccc7occ(C8CCC(=O)NC8=O)c7c6)nc5)ccc43)cc(C3CCOCC3)cc2n(C)c1=O` (stereo not drawn) [Example B140, 5-(1′,3′-dimethyl-2′-oxo-7′-(tetrahydro-2H-pyran-4-yl)-1′,2′,3,4-tetrahydro-2H-[1,5′-biquinolin]-6-yl)-N-(3-(3-(2,6-dioxopiperidin-3-yl)benzofuran-5-yl)prop-2-yn-1-yl) picolinamide]: the Dmax fell in the range of 60 to 79% and the DC50 was in the range of 1 to 9.9 nM.

Molecule `Cc1cc(-c2ncc(N(C)c3cc(C4CCOCC4)c4oc(=O)n(C)c4c3)cn2)cnc1C(=O)NCC#Cc1ccc2occ(C3CCC(=O)NC3=O)c2c1` (stereo not drawn) [Example A114, N-(3-(3-(2,6-dioxo-piperidin-3-yl)benzofuran-5-yl)prop-2-yn-1-yl)-3-methyl-5-(5-(methyl (3-methyl-2-oxo-7-(tetrahydro-2H-pyran-4-yl)-2,3-dihydrobenzo[d]oxazol-5-yl)amino)pyrimidin-2-yl)picolinamide] yielded a Dmax of under 20% and a DC50 of over 1000 nM.

Regarding `COc1cc(-c2ncc3c(n2)CCCN3c2cccc3c2cc(C)c(=O)n3C)cnc1C(=O)NCC#Cc1ccc2occ(C3CCC(=O)NC3=O)c2c1` (stereo not drawn) [Example B50, 5-(5-(1,3-dimethyl-2-oxo-1,2-dihydroquinolin-5-yl)-5,6,7,8-tetrahydropyrido[3,2-d]pyrimidin-2-yl)-N-(3-(3-(2,6-dioxopiperidin-3-yl)benzofuran-5-yl)prop-2-yn-1-yl)-3-methoxypicolinamide], the Dmax is over 80% and the DC50 fell in the range of 1 to 9.9 nM.

`COc1cc(-c2cc3cccc(-c4ccc5c(c4)n(C)c(=O)n5C)c3cn2)cnc1C(=O)NCC#Cc1ccc2occ(C3CCC(=O)NC3=O)c2c1` (stereo not drawn) [Example A148, 5-(8-(1,3-dimethyl-2-oxo-2,3-dihydro-1H-benzo[d]imidazol-5-yl)isoquinolin-3-yl)-N-(3-(3-(2,6-dioxo-piperidin-3-yl)benzofuran-5-yl)prop-2-yn-1-yl)-3-methoxypicolinamide] returned a Dmax of over 80% and a DC50 of 1 to 9.9 nM.

As for `CN(c1cnc(-c2ccc(C(=O)NCC#Cc3cc4c(C5CCC(=O)NC5=O)cccc4o3)nc2)nc1)c1cc(C2CCOCC2)c2c(c1)n(C)c(=O)n2C` (stereo not drawn) [Example A229, 5-(5-((1,3-dimethyl-2-oxo-7-(tetrahydro-2H-pyran-4-yl)-2,3-dihydro-1H-benzo[d]imidazol-5-yl)(methyl)amino)pyrimidin-2-yl)-N-(3-(4-(2,6-dioxo-piperidin-3-yl)benzofuran-2-yl)prop-2-yn-1-yl)picolinamide], the Dmax is over 80% and the DC50 is under 1 nM.

For `Cc1cc2c(N3CCOc4cc(-c5ccc(C(=O)NCC#Cc6ccc7occ(C8CCC(=O)NC8=O)c7c6)nc5)c(F)cc43)cc(C(C)C)cc2n(C)c1=O` (stereo not drawn) [Example B91, N-(3-(3-(2,6-dioxopiperidin-3-yl)benzofuran-5-yl)prop-2-yn-1-yl)-5-(6-fluoro-4-(7-isopropyl-1,3-dimethyl-2-oxo-1,2-dihydroquinolin-5-yl)-3,4-dihydro-2H-benzo[b][1,4]oxazin-7-yl)picolinamide], the Dmax was over 80% and the DC50 lay in the range of 10 to 99 nM.

`CCc1cc(N(C)c2ccn(-c3cnc(C(=O)NCC#Cc4cccc(NC5CCC(=O)NC5=O)c4)c(C)c3)c(=O)c2)c2cc(C)c(=O)n(C)c2c1` (stereo not drawn) [Example B152, N-(3-(3-((2,6-dioxopiperidin-3-yl)amino)phenyl)prop-2-yn-1-yl)-4-((7-ethyl-1,3-dimethyl-2-oxo-1,2-dihydroquinolin-5-yl) (methyl)amino)-5′-methyl-2-oxo-2H-[1,3′-bipyridine]-6′-carboxamide] came in with a Dmax of over 80% and a DC50 of 1 to 9.9 nM.

`CC(C)c1cc(-c2cccc3cc(-c4ccc(C(=O)NCC#Cc5ccc6c(c5)ncn6C5CCC(=O)NC5=O)nc4)ncc23)cc2c1n(C)c(=O)n2C` (stereo not drawn) [Example A38, N-(3-(1-(2,6-Dioxopiperidin-3-yl)-1H-benzo[d]imidazol-5-yl)prop-2-yn-1-yl)-5-(8-(7-isopropyl-1,3-dimethyl-2-oxo-2,3-dihydro-1H-benzo[d]imidazol-5-yl)isoquinolin-3-yl)picolinamide] yielded a Dmax of under 20% and a DC50 of over 1000 nM.

As for `Cc1cc2c(N3CCOc4cc(-c5ccc(C(=O)NCC#Cc6ccc7occ(C8CCC(=O)NC8=O)c7c6)nc5)ccc43)cc(C3CCOCC3)cc2n(C)c1=O` (stereo not drawn) [Example B41, 5-(4-(1,3-dimethyl-2-oxo-7-(tetrahydro-2H-pyran-4-yl)-1,2-dihydroquinolin-5-yl)-3,4-dihydro-2H-benzo[b][1,4]oxazin-7-yl)-N-(3-(3-(2,6-dioxopiperidin-3-yl)benzofuran-5-yl)prop-2-yn-1-yl)picolinamide], the Dmax was over 80% and the DC50 is 1 to 9.9 nM.

`Cc1cc(-c2ccc(N(C)c3cc(C(C)C)c4c(c3)n(C)c(=O)n4C)cc2C#N)cnc1C(=O)NCC#Cc1cccc(NC2CCC(=O)NC2=O)c1` (stereo not drawn) [Example A46, 5-(2-cyano-4-((7-isopropyl-1,3-dimethyl-2-oxo-2,3-dihydro-1H-benzo[d]imidazol-5-yl)(methyl)amino)phenyl)-N-(3-(3-((2,6-dioxopiperidin-3-yl)amino)phenyl)prop-2-yn-1-yl)-3-methylpicolinamide]: the Dmax is over 80% and the DC50 lay within 10 to 99 nM.

In turn, `Cn1c(=O)n(C)c2c(F)cc(N3CCOc4nc(-c5ccc(C(=O)NCC#Cc6cc7c(C8CCC(=O)NC8=O)cccc7o6)nc5)ncc43)cc21` (stereo not drawn) [Example A265, N-(3-(4-(2,6-dioxo-piperidin-3-yl)benzofuran-2-yl)prop-2-yn-1-yl)-5-(5-(7-fluoro-1,3-dimethyl-2-oxo-2,3-dihydro-1H-benzo[d]imidazol-5-yl)-6,7-dihydro-5H-pyrimido[4,5-b][1,4]oxazin-2-yl)picolinamide] gave a Dmax of 20 to 39% and a DC50 of 10 to 99 nM.

As to `CCc1cc(N(C)c2ccc(-c3cnc(C(=O)NCC#Cc4cccc(NC5CCC(=O)NC5=O)c4)c(C)c3)c(C(F)(F)F)c2)c2cc(C)c(=O)n(C)c2c1` (stereo not drawn) [Example B14, N-(3-(3-((2,6-Dioxopiperidin-3-yl)amino)phenyl)prop-2-yn-1-yl)-5-(4-((7-ethyl-1,3-dimethyl-2-oxo-1,2-dihydroquinolin-5-yl)(methyl)amino)-2-(trifluoromethyl)phenyl)-3-methylpicolinamide], the Dmax lay within 60 to 79% and the DC50 is 10 to 99 nM.

As to `COc1nc(-c2cnc(C(=O)NCC#Cc3cc4c(C5CCC(=O)NC5=O)cccc4o3)c(C)c2)ncc1N(C)c1cc(C2CCOCC2)c2c(c1)n(C)c(=O)n2C` (stereo not drawn) [Example A167, 5-(5-((1,3-dimethyl-2-oxo-7-(tetrahydro-2H-pyran-4-yl)-2,3-dihydro-1H-benzo[d]imidazol-5-yl)(methyl)amino)-4-methoxypyrimidin-2-yl)-N-(3-(4-(2,6-dioxopiperidin-3-yl)benzofuran-2-yl)prop-2-yn-1-yl)-3-methylpicolinamide], the Dmax fell in the range of 60 to 79% and the DC50 lay within 1 to 9.9 nM.

`CCc1cc2c(cc(C)c(=O)n2C)c(N2CCCc3nc(-c4ccc(C(=O)NCC#Cc5ccc6occ(C7CCC(=O)NC7=O)c6c5)nc4)ncc32)n1` (stereo not drawn) [Example B121, N-(3-(3-(2,6-dioxopiperidin-3-yl)benzofuran-5-yl)prop-2-yn-1-yl)-5-(5-(7-ethyl-1,3-dimethyl-2-oxo-1,2-dihydro-1,6-naphthyridin-5-yl)-5,6,7,8-tetrahydropyrido[3,2-d]pyrimidin-2-yl)picolinamide] returned a Dmax of 40 to 59% and a DC50 of 1 to 9.9 nM.

Regarding `Cc1cc(N2CCN(C)c3cc(-c4ccc(C(=O)NCC#Cc5cc6c(C7CCC(=O)NC7=O)nccc6o5)nc4)ncc32)cc2c1n(C)c(=O)n2C` (stereo not drawn) [Example A209, N-(3-(4-(2,6-dioxo-piperidin-3-yl)furo [3,2-c]pyridin-2-yl)prop-2-yn-1-yl)-5-(1-methyl-4-(1,3,7-trimethyl-2-oxo-2,3-dihydro-1H-benzo[d]imidazol-5-yl)-1,2,3,4-tetrahydropyrido[3,4-b]pyrazin-7-yl)picolinamide], the Dmax is over 80% and the DC50 was under 1 nM.

In turn, `Cc1cc(N2CCCc3nc(-c4ccc(C(=O)NCC#Cc5cc6c(C7CCC(=O)NC7=O)cccc6o5)nc4)ncc32)cc2c1n(C)c(=O)n2C` (stereo not drawn) [Example A188, N-(3-(4-(2,6-dioxo-piperidin-3-yl)benzofuran-2-yl)prop-2-yn-1-yl)-5-(5-(1,3,7-trimethyl-2-oxo-2,3-dihydro-1H-benzo[d]imidazol-5-yl)-5,6,7,8-tetrahydropyrido[3,2-d]pyrimidin-2-yl)picolinamide] showed a Dmax of over 80% and a DC50 of under 1 nM.

By Dmax is commonly meant the largest share of the target that was removed. A higher Dmax goes with deep degradation. As a reminder, the DC50 is the concentration at which degradation of the target reaches its halfway point. High values mean a less potent degrader, low ones a more potent degrader.
